From publication PMC12807533 (Science (New York, N.Y.), 2025)

What was measured:
[1] = system: T1, XanP (His-XanP)
T1 construct: gene XOC_0142

[2] = system: AvrBs2 (AvrBs2-FLAG)
Sequence of AvrBs2 (AvrBs2-FLAG) (G7TIV7 1-714): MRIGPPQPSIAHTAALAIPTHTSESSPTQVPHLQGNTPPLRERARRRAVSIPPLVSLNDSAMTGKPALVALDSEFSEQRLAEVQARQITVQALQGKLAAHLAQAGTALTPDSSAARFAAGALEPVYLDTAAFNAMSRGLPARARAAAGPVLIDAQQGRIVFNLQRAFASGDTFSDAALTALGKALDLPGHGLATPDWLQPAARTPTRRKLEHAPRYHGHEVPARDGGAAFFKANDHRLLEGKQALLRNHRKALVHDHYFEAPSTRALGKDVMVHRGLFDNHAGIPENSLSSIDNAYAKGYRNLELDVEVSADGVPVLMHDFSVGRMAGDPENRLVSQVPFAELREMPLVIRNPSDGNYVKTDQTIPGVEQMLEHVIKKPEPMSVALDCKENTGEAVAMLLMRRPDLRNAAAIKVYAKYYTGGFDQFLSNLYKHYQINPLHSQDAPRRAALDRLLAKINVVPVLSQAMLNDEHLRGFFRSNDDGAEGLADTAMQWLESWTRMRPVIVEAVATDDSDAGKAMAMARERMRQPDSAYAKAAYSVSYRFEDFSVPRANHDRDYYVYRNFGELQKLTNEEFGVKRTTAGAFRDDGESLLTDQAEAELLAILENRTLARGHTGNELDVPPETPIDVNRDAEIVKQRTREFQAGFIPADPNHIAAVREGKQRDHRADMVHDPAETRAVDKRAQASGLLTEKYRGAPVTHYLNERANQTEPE

T1 sequence (G7TIV3 32-261 limits assumed): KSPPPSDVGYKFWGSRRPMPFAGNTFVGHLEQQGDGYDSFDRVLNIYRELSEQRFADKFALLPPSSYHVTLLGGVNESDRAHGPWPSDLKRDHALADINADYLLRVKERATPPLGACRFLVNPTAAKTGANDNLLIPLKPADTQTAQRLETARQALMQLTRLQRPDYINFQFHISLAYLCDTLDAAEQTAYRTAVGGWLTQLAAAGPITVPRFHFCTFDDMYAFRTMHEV

Row | SMILES | TLC of hydrolysis products [1] | TLC and HILIC-ESI-MS of in vitro xanthosan synthesis [2]
1 | O=P(O)(O)O[C@H]1O[C@H](CO)[C@H](O)[C@H](O)[C@H]1O [Gal-1-P] | the other product migrated similarly to Gal-1-P, but not Gal-6-P | 
2 | O=P1(O)OC[C@H]2O[C@H](OP(=O)(O)OC[C@H]3O[C@H](O1)[C@H](O)[C@@H](O)[C@H]3O)[C@H](O)[C@@H](O)[C@H]2O [xanthosan, bis-(1,6)-cyclic dimeric α-D-galactose-phosphate] |  | AvrBs2 converts UDP-α-D-galactose into xanthosan
